Measured values as given in ChEMBL document CHEMBL1125860 (J Med Chem, 1991).
Each block holds one compound with its values, some of them ahead of it. Active and inactive are the calls of the source. The rule behind the calls is not given here.

Assays:
[1] = molecular target: Aldo-keto reductase family 1 member B1 (Bos taurus) (UniProt P16116); assay: In vitro % decrease of aldose reductase measured in isolated partially purified bovine lens preparations at 10e-7 M concentration
Rattus norvegicus [2] = assay: In vivo inhibition of galactitol accumulation in sciatic nerves of rat at 15 mg/kg/day; format: functional; details: Sciatic nerve
Rattus norvegicus [3] = assay: In vivo inhibition of galactitol accumulation in sciatic nerves of rat at 25 mg/kg/day; format: functional; details: Sciatic nerve
Rattus norvegicus [4] = assay: In vivo inhibition of galactitol accumulation in diaphragm of rat at 15 mg/kg/day; format: functional
Rattus norvegicus [5] = assay: In vivo inhibition of galactitol accumulation in diaphragm of rat at 25 mg/kg/day; format: functional
Rattus norvegicus [6] = organism: Rattus norvegicus; assay: (§1) In vitro inhibition of sorbitol accumulation was measured in rat sciatic nerves incubated in the presence of 50 mM glucose at 10e-5 M concentration; format: functional, Sciatic nerve
Rattus norvegicus [7] = organism: Rattus norvegicus; assay: (§2) In vitro inhibition of sorbitol accumulation was measured in rat sciatic nerves incubated in the presence of 50 mM glucose at 10e-6 M concentration; format: functional, Sciatic nerve
[8] = molecular target: Aldo-keto reductase family 1 member B1 (Bos taurus) (UniProt P16116); assay: In vitro % decrease of aldose reductase was measured in isolated partially purified bovine lens preparations at 10e-7 M concentration; Not active
Rattus norvegicus [9] = assay: In vivo inhibition of galactitol accumulation in sciatic nerves of rat at 22 mg/kg/day; format: functional; details: Sciatic nerve
Rattus norvegicus [10] = assay: In vivo inhibition of galactitol accumulation in diaphragm of rat at 27 mg/kg/day; format: functional
Rattus norvegicus [11] = assay: In vivo inhibition of galactitol accumulation in sciatic nerves of rat at 27 mg/kg/day; format: functional; details: Sciatic nerve
Rattus norvegicus [12] = assay: In vivo inhibition of galactitol accumulation in sciatic nerves of rat at 11 mg/kg/day; format: functional; details: Sciatic nerve
Rattus norvegicus [13] = assay: In vivo inhibition of galactitol accumulation in diaphragm of rat at 22 mg/kg/day; format: functional
Rattus norvegicus [14] = assay: In vivo inhibition of galactitol accumulation in diaphragm of rat at 11 mg/kg/day; format: functional
Rattus norvegicus [15] = assay: In vivo inhibition of galactitol accumulation in diaphragm of rat at 65 mg/kg/day; format: functional
Rattus norvegicus [16] = assay: In vivo inhibition of galactitol accumulation in sciatic nerves of rat at 65 mg/kg/day; Not significant; format: functional, organism-based; details: Sciatic nerve
Rattus norvegicus [17] = assay: In vivo inhibition of galactitol accumulation in diaphragm of rat at 94 mg/kg/day; format: functional
Rattus norvegicus [18] = assay: In vivo inhibition of galactitol accumulation in sciatic nerves of rat at 94 mg/kg/day; Not significant; format: functional, organism-based; details: Sciatic nerve
Rattus norvegicus [19] = organism: Rattus norvegicus; assay: as §1; format: functional; details: Sciatic nerve
Rattus norvegicus [20] = organism: Rattus norvegicus; assay: as §2; format: functional; details: Sciatic nerve
Rattus norvegicus [21] = assay: Effective dose of aldose reductase was evaluated by measuring galactitol accumulation in sciatic nerves of rat at 4 mg/kg/day; format: functional; details: Sciatic nerve
Rattus norvegicus [22] = assay: In vivo inhibition of galactitol accumulation in diaphragm of rat at 4 mg/kg/day; format: functional
Rattus norvegicus [23] = assay: In vivo inhibition of galactitol accumulation in sciatic nerves of rat at 4 mg/kg/day; format: functional; details: Sciatic nerve
Rattus norvegicus [24] = assay: In vivo inhibition of galactitol accumulation in diaphragm of rat at 18 mg/kg/day; format: functional
Rattus norvegicus [25] = assay: In vivo inhibition of galactitol accumulation in sciatic nerves of rat at 18 mg/kg; format: functional; details: Sciatic nerve
Rattus norvegicus [26] = assay: % reduction of aldose reductase inhibition was evaluated by measuring galactitol accumulation in diaphragm of rat at 112 mg/kg/day; Not significant; format: functional, organism-based
Rattus norvegicus [27] = assay: In vivo inhibition of galactitol accumulation in sciatic nerves of rat at 19 mg/kg/day; format: functional; details: Sciatic nerve
Rattus norvegicus [28] = assay: In vivo inhibition of galactitol accumulation in sciatic nerves of rat at 112 mg/kg/day; Not significant; format: functional, organism-based; details: Sciatic nerve
Rattus norvegicus [29] = assay: In vivo inhibition of galactitol accumulation in diaphragm of rat at 19 mg/kg/day; format: functional
[30] = molecular target: Aldo-keto reductase family 1 member B1 (Bos taurus, UniProt P16116); assay: Inhibition of aldose reductase activity was measured on partially purified bovine lens preparations incubated in presence of 50 mM glucose.
Rattus norvegicus [31] = organism: Rattus norvegicus; assay: Inhibition of aldose reductase activity was measured by measuring […] in the RBC of galactose fed rat.; format: functional
Rattus norvegicus [32] = organism: Rattus norvegicus; assay: Inhibition of aldose reductase activity was measured by measuring […] in the sciatic nerves of galactose fed rat.; format: functional; details: Sciatic nerve
Rattus norvegicus [33] = organism: Rattus norvegicus; assay: Inhibition of aldose reductase activity was measured by measuring sorbitor accumulation in the sciatic nerves of STZ diabetic rat.; format: functional; details: Sciatic nerve
Rattus norvegicus [34] = organism: Rattus norvegicus; assay: Inhibition of galactitol accumulation in rat RBC incubated in presence of 50 mM glucose; format: functional, organism-based
Rattus norvegicus [35] = organism: Rattus norvegicus; assay: Inhibition of galactitol accumulation in rat lens incubated in presence of 50 mM glucose; format: functional, organism-based; details: Lens of camera-type eye
Rattus norvegicus [36] = organism: Rattus norvegicus; assay: Inhibition of galactitol accumulation in sciatic nerves of rat incubated in presence of 50 mM glucose.; format: functional, organism-based; details: Sciatic nerve
Rattus norvegicus [37] = assay: In vivo inhibition of galactitol accumulation in diaphragm of rat at 5 mg/kg/day; format: functional
Rattus norvegicus [38] = assay: In vivo inhibition of galactitol accumulation in sciatic nerves of rat at 10 mg/kg/day; format: functional; details: Sciatic nerve
Rattus norvegicus [39] = assay: In vivo inhibition of galactitol accumulation in sciatic nerves of rat at 5 mg/kg/day; format: functional; details: Sciatic nerve
Rattus norvegicus [40] = assay: In vivo inhibition of galactitol accumulation in diaphragm of rat at 10 mg/kg/day; format: functional
Rattus norvegicus [41] = assay: In vivo inhibition of galactitol accumulation in sciatic nerves of rat at 105 mg/kg/day; Not significant; format: functional, organism-based; details: Sciatic nerve
Rattus norvegicus [42] = assay: In vivo inhibition of galactitol accumulation in diaphragm of rat at 105 mg/kg/day; format: functional
Rattus norvegicus [43] = assay: In vivo inhibition of galactitol accumulation in diaphragm of rat at 43 mg/kg/day; Not significant; format: functional, organism-based
Rattus norvegicus [44] = assay: In vivo inhibition of galactitol accumulation in sciatic nerves of rat at 43 mg/kg/day; Not significant; format: functional, organism-based; details: Sciatic nerve
Rattus norvegicus [45] = assay: In vivo inhibition of galactitol accumulation in sciatic nerves of rat at 5 mg/kg/day; Not significant; format: functional, organism-based; details: Sciatic nerve

Compound: CCOC(=O)N(CC(=O)O)C(=O)c1c(F)ccc2c(C(F)(F)F)c(OC)ccc12
inhibition [1]: 87% | inhibition in vivo at 15 mg/kg/day (Rattus norvegicus [2]): 55% | inhibition in vivo at 25 mg/kg/day (Rattus norvegicus [3]): 70% | inhibition in vivo at 15 mg/kg/day (Rattus norvegicus [4]): 59% | inhibition in vivo at 25 mg/kg/day (Rattus norvegicus [5]): 65% | Inhibition (Rattus norvegicus [6]): 75% | Inhibition (Rattus norvegicus [7]): 51%

Compound: COC(=O)CN(C)C(=O)c1c(F)ccc2c(C(F)(F)F)c(OC)ccc12
inhibition [8]: inactive | inhibition in vivo at 22 mg/kg/day (Rattus norvegicus [9]): 80% | inhibition in vivo at 27 mg/kg/day (Rattus norvegicus [10]): 48% | inhibition in vivo at 27 mg/kg/day (Rattus norvegicus [11]): 48% | inhibition in vivo at 11 mg/kg/day (Rattus norvegicus [12]): 29% | inhibition in vivo at 22 mg/kg/day (Rattus norvegicus [13]): 55% | inhibition in vivo at 11 mg/kg/day (Rattus norvegicus [14]): 34%

Compound: O=C1NC(=O)[C@@]2(CCOc3ccc(F)cc32)N1 [SORBINIL]
IC50 (Rattus norvegicus [19]): 2.2 µM | IC50 (Rattus norvegicus [20]): 2.2 µM | ED50 (Rattus norvegicus [21]): 4.2 mg/kg | inhibition in vivo at 4 mg/kg/day (Rattus norvegicus [22]): 69% | inhibition in vivo at 4 mg/kg/day (Rattus norvegicus [23]): 55% | Inhibition (Rattus norvegicus [6]): 96% | Inhibition (Rattus norvegicus [7]): 27%

Compound: COc1ccc2c(C(=S)N(C)CC(=O)O)cccc2c1Br
inhibition [1]: 72% | inhibition in vivo at 25 mg/kg/day (Rattus norvegicus [3]): 64% | inhibition in vivo at 18 mg/kg/day (Rattus norvegicus [24]): 88% | inhibition in vivo at 25 mg/kg/day (Rattus norvegicus [5]): 90% | inhibition in vivo at 18 mg/kg (Rattus norvegicus [25]): 39%

Compound: COc1c(C)cc2c(C(=O)N(C)CC(=O)O)cccc2c1Br
inhibition [1]: 20% | inhibition (Rattus norvegicus [26]): inactive | inhibition in vivo at 19 mg/kg/day (Rattus norvegicus [27]): 77% | inhibition (Rattus norvegicus [28]): inactive | inhibition in vivo at 19 mg/kg/day (Rattus norvegicus [29]): 63%

Compound: COc1c(C)cc2c(C(=S)N(C)CC(=O)O)cccc2c1Br
inhibition [1]: 8% | inhibition (Rattus norvegicus [41]): inactive | inhibition in vivo at 10 mg/kg/day (Rattus norvegicus [38]): 54% | inhibition in vivo at 10 mg/kg/day (Rattus norvegicus [40]): 87% | inhibition in vivo at 105 mg/kg/day (Rattus norvegicus [42]): 34%

More lines, main results first:

inhibition [1]: 73%
Compound: COc1ccc2c(C(=O)N(C)CC(=O)O)c(OCc3ccccc3)ccc2c1C(F)(F)F
inhibition in vivo at 65 mg/kg/day (Rattus norvegicus [15]): 23% | inhibition (Rattus norvegicus [16]): inactive

inhibition [1]: 23%
Compound: CCCCc1ccc2c(C(F)(F)F)c(OC)ccc2c1C(=O)N(C)CC(=O)O
inhibition in vivo at 94 mg/kg/day (Rattus norvegicus [17]): 37% | inhibition (Rattus norvegicus [18]): inactive

IC50 [30]: 0.025 µM | inhibition [1]: 86% | IC50 (Rattus norvegicus [34]): 0.019 µM | IC50 (Rattus norvegicus [35]): 0.34 µM | IC50 (Rattus norvegicus [36]): 2.8 µM
Compound: COC(=O)N(CC(=O)O)C(=O)c1c(F)ccc2c(C(F)(F)F)c(OC)ccc12
ED50 (Rattus norvegicus [31]): 3.5 mg/kg | ED50 (Rattus norvegicus [32]): 4.8 mg/kg | ED50 (Rattus norvegicus [33]): 4 mg/kg | inhibition in vivo at 5 mg/kg/day (Rattus norvegicus [37]): 52% | inhibition in vivo at 10 mg/kg/day (Rattus norvegicus [38]): 61% | inhibition in vivo at 5 mg/kg/day (Rattus norvegicus [39]): 50% | inhibition in vivo at 10 mg/kg/day (Rattus norvegicus [40]): 62% | Inhibition (Rattus norvegicus [6]): 61% | Inhibition (Rattus norvegicus [7]): 36%

inhibition [1]: 76%
Compound: CCOC(=O)N(CC(=O)O)C(=O)c1c(Br)ccc2c(C(F)(F)F)c(OC)ccc12
inhibition (Rattus norvegicus [43]): inactive | inhibition (Rattus norvegicus [44]): inactive | Inhibition (Rattus norvegicus [6]): 73% | Inhibition (Rattus norvegicus [7]): 52%

inhibition [1]: 89%
Compound: O=C(O)Cc1nn(Cc2nc3cc(C(F)(F)F)ccc3s2)c(=O)c2ccccc12 [ZOPOLRESTAT]
inhibition in vivo at 5 mg/kg/day (Rattus norvegicus [37]): 88% | inhibition in vivo at 10 mg/kg/day (Rattus norvegicus [38]): 70% | inhibition (Rattus norvegicus [45]): inactive | inhibition in vivo at 10 mg/kg/day (Rattus norvegicus [40]): 80%
